Among the data in patent US12378190B2, “Two-component coating system” (COVESTRO (NETHERLANDS) B.V., priority 2020, dated 2025) are Genotoxicity test conclusion and Rtkn induction level values, retold here.

In data set [1] the test system is Bscl2-GFP and Rtkn-GFP mES reporter cell lines. Kind of data set: ToxTracker genotoxicity assay, overall conclusion. The settings on record: positive: >=2-fold induction; weakly positive: >1.5 and <2-fold; negative: <=[…] at 10, 25 and 50% cytotoxicity, with and without S9. Here is the method: A 2 L four-necked flask equipped with a thermometer and overhead stirrer was charged with sodium lauryl sulphate (30% solids in water, 18.6 grams of solution) and demineralized water (711 grams). The reactor phase was placed under N2 atmosphere and heated to 82° C. A mixture of demineralized water (112 grams), sodium lauryl sulphate (30% solids in water, 37.2 grams of solution), methyl methacrylate (209.3 grams), n-butyl acrylate (453.56 grams) and methacrylic acid (34.88 grams) was placed in a large feeding funnel and emulsified with an overhead stirrer (monomer feed). Ammonium persulphate (1.75 grams) was dissolved in demineralized water (89.61 grams) and placed in a small feeding funnel (initiator feed). Ammonium persulphate (1.75 grams) was dissolved in demineralized water (10.5 grams), and this solution was added to the reactor phase. Immediately afterwards, 5% by volume of the monomer feed was added to the reactor phase. The reaction mixture then exothermed to 85° C. and was kept at 85° C. for 5 minutes. Then, the residual monomer feed and the initiator feed were fed to the reaction mixture over 90 minutes, maintaining a temperature of 85° C. […] Metabolic was evaluated by addition of S9 liver extract. […] Only GFP expression in intact single cells is determined. […]

Data set [2] relates to Rtkn-GFP mouse embryonic stem (mES) reporter cell line. Kind of data set: ToxTracker genotoxicity assay, Rtkn-GFP reporter induction. Here is the method: A 2 L four-necked flask equipped with a thermometer and overhead stirrer was charged with sodium lauryl sulphate (30% solids in water, 18.6 grams of solution) and demineralized water (711 grams). The reactor phase was placed under N2 atmosphere and heated to 82° C. A mixture of demineralized water (112 grams), sodium lauryl sulphate (30% solids in water, 37.2 grams of solution), methyl methacrylate (209.3 grams), n-butyl acrylate (453.56 grams) and methacrylic acid (34.88 grams) was placed in a large feeding funnel and emulsified with an overhead stirrer (monomer feed). Ammonium persulphate (1.75 grams) was dissolved in demineralized water (89.61 grams) and placed in a small feeding funnel (initiator feed). Ammonium persulphate (1.75 grams) was dissolved in demineralized water (10.5 grams), and this solution was added to the reactor phase. Immediately afterwards, 5% by volume of the monomer feed was added to the reactor phase. The reaction mixture then exothermed to 85° C. and was kept at 85° C. for 5 minutes. Then, the residual monomer feed and the initiator feed were fed to the reaction mixture over 90 minutes, maintaining a temperature of 85° C. After completion of the feeds, the monomer feed funnel was rinsed with demineralized water (18.9 grams) and reaction temperature maintained at 85° C. for 45 minutes. Subsequently, the mixture was cooled to room temperature and brought to pH=7.2 with ammonia solution (6.25 wt. % in demineralized water), and brought to 40% solids with further demineralized water. […] This methodology uses a two step-approach. […] Metabolic was evaluated by addition of S9 liver extract. […] Only GFP expression in intact single cells is determined. […] Components and Abbreviations Used: Dimethylformamide (CAS No. 68-12-2) was obtained from Acros Organics (a division of Thermo Fisher Scientific). […] IPDI (5-isocyanato-1-(isocyanatomethyl)-1,3,3-trimethylcyclohexane, Desmodur® I, isophorone diisocyanate, CAS No. 4098-71-9) was obtained from Covestro. Polyethylene Glycol Monomethyl Ether (CAS No. 9004-74-4) with a number average molecular weight of 1000 Da was obtained from Tokyo Chemical Industry Co., Ltd. Vestanat® T 1890/100, an isophorone diisocyanate based isocyanurate (CAS No. 67873-91-0) was obtained from Evonik. Desmodur® N3600 was obtained from Covestro. 1-methoxy-2-propanol acetate (propylene glycol methyl ether acetate, CAS No. 108-65-6) was obtained from Shell Chemicals. 1-(2-hydroxyethyl)ethyleneimine) (CAS No. 1072-52-2) was obtained from Tokyo Chemical Industry Co., Ltd. Jeffamine® XTJ-436 (CAS No. 118270-87-4) was obtained from Huntsman Bismuth neodecanoate (CAS No. 34364-26-6) obtained from TIB chemicals AG (Mannheim, Germany). Hydrazine (16% solution in water, CAS No. 302-01-2) was obtained from Honeywell. Dimethylol propionic acid (DMPA, CAS No. 4767-03-7) was obtained from Perstop Polyols. Triethylamine (TEA, CAS No. 121-44-8) was obtained from Arkema 1-propanol (CAS No. 71-23-8) was obtained from Sigma-Aldrich. Tin 2-ethylhexanoate (CAS No. 301-10-0) was obtained from Sigma-Aldrich. Dibutyltindilaurate (CAS No. 77-58-7) was obtained from Sigma-Aldrich. Tegomer® D3403 was obtained from Evonik. Polypropyleneglycol with a number average molecular weight of 1000 Da and with a number average molecular weight of 2000 Da was obtained from BASF. 3-Methyl-1-phenyl-2-phospholene-1-oxide (CAS No. 707-61-9) was obtained from Sigma-Aldrich. 1-Butanol (CAS No. 71-36-3) was obtained from Sigma-Aldrich. Sodium lauryl sulphate (30% solution in water, CAS No. 73296-89-6) was obtained from BASF. Methyl methacrylate (CAS No. 80-62-6) was obtained from Lucite Int. n-Butyl acrylate (CAS No. 141-32-2) was obtained from Dow Chemical. Methacrylic acid (CAS No. 79-41-4) was obtained from Lucite Int. Ammonium persulphate (CAS No. 7727-54-0) was obtained from United Initiators. Ammonia (25% solution in water, CAS No. 1336-21-6) was obtained from Merck

With `O=C(CCN1CC1)OCC(CO)(COC(=O)CCN1CC1)COC(=O)CCN1CC1` [Comparative Example 3, pentaerythritol tris(3-(1-aziridinyl)propionate)], the Genotoxicity test conclusion entry in data set [1] was “genotoxic”.

With `O=C(NCCCCCCn1c(=O)n(CCCCCCNC(=O)OCCN2CC2)c(=O)n(CCCCCCNC(=O)OCCN2CC2)c1=O)OCCN1CC1` [compound 2], the Rtkn induction level in data set [2] (with S9 rat liver extract, 3 h exposure and 24 h recovery, at 10% cytotoxicity) is listed as 2.0 fold; in data set [2] (with S9 rat liver extract, 3 h exposure and 24 h recovery, at 25% cytotoxicity) it was 3.4 fold; in data set [2] (with S9 rat liver extract, 3 h exposure and 24 h recovery, at 50% cytotoxicity), 3.0 fold; in data set [2] (without S9 rat liver extract, 24 h exposure, at 10% cytotoxicity) it was 1.7 fold; in data set [2] (without S9 rat liver extract, 24 h exposure, at 25% cytotoxicity) it was 2.4 fold; in data set [2] (without S9 rat liver extract, 24 h exposure, at 50% cytotoxicity) it was 2.8 fold. Besides, the Genotoxicity test conclusion entry in data set [1] was “genotoxic”.
